Experimental data: US10703760B2, “Morphic forms of marizomib and uses thereof” (Celgene International II Sàrl, priority 2016, dated 2020)
In brackets after ≈: the same amount, converted by molar mass.

Columns and labels:
Assay type in all cases: physicochemical
[1] = Thermogravimetric analysis (TGA)
Description: TGA data were collected on a TA Instruments Q500 TGA, equipped with a 16-position auto-sampler. The instrument was temperature calibrated using certified Alumel™ and Nickel. Typically 5-10 mg of each sample was loaded onto a pre-tared aluminum DSC pan and heated at 10° C./min from ambient temperature to 350° C. A nitrogen purge at 60 ml/min was maintained over the sample.
TG analyses were performed using a TA Instruments Q5000 IR thermogravimetric analyzer. Temperature calibration was performed using nickel and Alumel™. Each sample was placed in an aluminum pan. The sample was hermetically sealed, the lid pierced, then inserted into the TG furnace. The furnace was heated under nitrogen.

Salt screen of marizomib = settings: sulfonic acids and mineral acids
Description: For crash cooling (CC), a solution of MRZ and coformer was prepared at elevated temperature in a given solvent mixture. The vial was capped and immediately placed in a refrigerator or freezer. For fast cooling (FC), solutions of MRZ and coformer were prepared at elevated temperatures in given solvents or solvent mixtures. The vial was capped and placed on a bench top at room temperature to quickly cool. For slow cooling (SC), a solution of MRZ and coformer was prepared at elevated temperature in a given solvent mixture. The vial was capped and left in a heating block at elevated temperature. The heater then was turned off for the sample to cool down naturally to room temperature. For slow evaporation (SE), solutions of MRZ and coformer were generated at ambient temperature in a given solvent or solvent mixture. The solutions were allowed to evaporate partially or to dryness from a loosely capped vial at ambient conditions. Slurry experiments were carried out by making saturated solutions containing excess solid. The slurries were agitated at ambient or elevated temperatures for a specified amount of time. The solids present were recovered via positive pressure filtration. Solvent assisted grinding experiments were carried out by mixing MRZ and coformer in an agate mortar and pestle. Aliquots of solvent were added and the mixture ground manually for specified amount of time. […]

[2] = Approximate solubility of Sample 4 by solvent aliquot addition, visual inspection; post-solubility storage; settings: for solubility: thermodynamic from solid
Description: Weighed samples of MRZ, Sample 4 were treated with aliquots of the test solvents or solvent mixtures at ambient temperature. Complete dissolution of the test material was determined by visual inspection. Solubility was estimated based on the total solvent volume used to provide complete dissolution. The actual solubility may be greater than the value calculated because of the use of solvent aliquots that were too large or due to a slow rate of dissolution. If complete dissolution was not achieved during the experiment, the solubility is expressed as “less than”. If complete dissolution was achieved by only one aliquot addition, the value is reported as “larger than”. As set forth in Table-9, the ratio of solvent mixtures are given by volume. Solubilities are estimated at ambient temperature and reported to the nearest mg/mL; if complete dissolution was not achieved, the value is reported as “<”; the actual solubility may be greater than the reported value due to the use of solvent aliquots that were too large or due to a slow rate of dissolution. Post-solubility samples were stored at 2-8° C. for 15-16 days followed by 1 day at ambient storage before visual inspection for precipitation. Post-solubility samples were visually inspected after 2-3 days of ambient storage. Formation system A is: 55% propylene glycol+5% ethanol+40% citrate buffer (10 mM; pH 5). Formation system B is: 14/86 (v/v) H2O/tert-butyl alcohol containing 30 mg/mL sucrose, and titrated with HCl to pH 3.2±0.2.

Structure (SMILES): C[C@@]12OC(=O)[C@]1([C@@H](O)[C@@H]1C=CCCC1)NC(=O)[C@@H]2CCCl [marizomib]
- weight loss (TGA) ([1]; solids from 2-pyrrolidone (1:1) cocrystal experiment, from 27.1° C. to 92.0° C.): 5.0%
- weight loss (TGA) ([1]; solids from Melamine (1:1) cocrystal experiment, from 30.2° C. to 104.0° C.): 10.3%
- weight loss (TGA) ([1]; solids from Melamine (1:1) cocrystal experiment, from 30.2° C. to 146.0° C.): C. 21.1%
- Crystalline salt formation (Salt screen of marizomib): No crystalline salt of marizomib was produced

Structure (SMILES): C[C@@]12OC(=O)[C@]1([C@@H](O)[C@@H]1C=CCCC1)NC(=O)[C@@H]2CCCl [Sample 4, marizomib]
- TGA weight loss prior to decomposition [1]: negligible weight loss prior to decomp
- TGA (onset, decomp.) ([1]; Sample 4 prior to testing): 168 °C (onset, decomp.)
- TGA: decomposition after ([1]; as stated in cocrystal discussion): approximately 150 °C
- solubility ([2]; aqueous with cosolvent or surfactant or cyclodextrin, Formulation System A (55% propylene glycol + 5% EtOH + 40% citrate buffer 10 mM pH 5), ambient temperature): < 1 mg/mL
- solubility ([2]; aqueous with cosolvent or surfactant or cyclodextrin, Formulation System B (14/86 v/v H2O/tBA, 30 mg/ml sucrose, pH 3.2), ambient temperature): 6 mg/mL (≈ 19.1 mM)
- solubility ([2]; organic solvent or mixture, 1-propanol, ambient temperature): 2 mg/mL (≈ 6.37 mM)
- solubility ([2]; organic solvent or mixture, 2,2,2-trifluoroethanol, ambient temperature): < 1 mg/mL
- solubility ([2]; organic solvent or mixture, 2-Me THF, ambient temperature): 32 mg/mL (≈ 102 mM)
- solubility ([2]; organic solvent or mixture, 20:80 2-MeTHF/MeOAc (v/v), ambient temperature): 34 mg/mL (≈ 108 mM)
- solubility ([2]; organic solvent or mixture, 20:80 CHCl3/DCM (v/v), ambient temperature): 3 mg/mL (≈ 9.56 mM)
- solubility ([2]; organic solvent or mixture, 20:80 MEK/IPA (v/v), ambient temperature): 10 mg/mL (≈ 31.9 mM)
- solubility ([2]; organic solvent or mixture, 20:80 MEK/MIBK (v/v), ambient temperature): 12 mg/mL (≈ 38.2 mM)
- solubility ([2]; organic solvent or mixture, 20:80 NMP/1-propanol (v/v), ambient temperature): 19 mg/mL (≈ 60.6 mM)
- solubility ([2]; organic solvent or mixture, 20:80 NMP/IPA (v/v), ambient temperature): 19 mg/mL (≈ 60.6 mM)
- solubility ([2]; organic solvent or mixture, 20:80 THF/nitromethane (v/v), ambient temperature): 15 mg/mL (≈ 47.8 mM)
- solubility ([2]; organic solvent or mixture, 25:75 ACN/MTBE (v/v), ambient temperature): 10 mg/mL (≈ 31.9 mM)
- solubility ([2]; organic solvent or mixture, 25:75 DMF/anisole (v/v), ambient temperature): 17 mg/mL (≈ 54.2 mM)
- solubility ([2]; organic solvent or mixture, 50:50 EtOAc/cyclohexane (v/v), ambient temperature): 4 mg/mL (≈ 12.7 mM)
- solubility ([2]; organic solvent or mixture, 50:50 EtOAc/isooctane (v/v), ambient temperature): 2 mg/mL (≈ 6.37 mM)
- solubility ([2]; organic solvent or mixture, 50:50 MeOH/Et2O (v/v), ambient temperature): 21 mg/mL (≈ 66.9 mM)
- solubility ([2]; organic solvent or mixture, 50:50 THF/hexanes (v/v), ambient temperature): 21 mg/mL (≈ 66.9 mM)
- solubility ([2]; organic solvent or mixture, 50:50 acetone/heptane (v/v), ambient temperature): 12 mg/mL (≈ 38.2 mM)
- solubility ([2]; organic solvent or mixture, 50:50 acetone/iso-octane (v/v), ambient temperature): 12 mg/mL (≈ 38.2 mM)
- solubility ([2]; organic solvent or mixture, ACN, ambient temperature): 10 mg/mL (≈ 31.9 mM)
- solubility ([2]; organic solvent or mixture, CHCl3, ambient temperature): 2 mg/mL (≈ 6.37 mM)
- solubility ([2]; organic solvent or mixture, DCM, ambient temperature): 2 mg/mL (≈ 6.37 mM)
- solubility ([2]; organic solvent or mixture, DMSO, ambient temperature): > 83 mg/mL
- solubility ([2]; organic solvent or mixture, EtOAc, ambient temperature): 15 mg/mL (≈ 47.8 mM)
- solubility ([2]; organic solvent or mixture, Formic acid, ambient temperature): 15 mg/mL (≈ 47.8 mM)
- solubility ([2]; organic solvent or mixture, IPA, ambient temperature): 6 mg/mL (≈ 19.1 mM)
- solubility ([2]; organic solvent or mixture, MEK, ambient temperature): 33 mg/mL (≈ 105 mM)
- solubility ([2]; organic solvent or mixture, MIBK, ambient temperature): 11 mg/mL (≈ 35.1 mM)
- solubility ([2]; organic solvent or mixture, MeOAc, ambient temperature): 20 mg/mL (≈ 63.7 mM)
- solubility ([2]; organic solvent or mixture, NMP, ambient temperature): 5 mg/mL (≈ 15.9 mM)
- solubility ([2]; organic solvent or mixture, THF, ambient temperature): 49 mg/mL (≈ 156 mM)
- solubility ([2]; organic solvent or mixture, [EMIm][Cl], ambient temperature): < 2 mg/mL
- solubility ([2]; organic solvent or mixture, [EMIm][NTF2], ambient temperature): 1 mg/mL (≈ 3.19 mM)
- solubility ([2]; organic solvent or mixture, acetic acid, ambient temperature): 10 mg/mL (≈ 31.9 mM)
- solubility ([2]; organic solvent or mixture, acetone, ambient temperature): 39 mg/mL (≈ 124 mM)
- solubility ([2]; organic solvent or mixture, anisole, ambient temperature): 2 mg/mL (≈ 6.37 mM)
- solubility ([2]; organic solvent or mixture, cyclohexanone, ambient temperature): 22 mg/mL (≈ 70.1 mM)
- solubility ([2]; organic solvent or mixture, dioxane, ambient temperature): 20 mg/mL (≈ 63.7 mM)
- solubility ([2]; organic solvent or mixture, nitromethane, ambient temperature): 2 mg/mL (≈ 6.37 mM)
- solubility ([2]; organic solvent or mixture, pyridine, ambient temperature): 36 mg/mL (≈ 115 mM)
- solubility ([2]; organic solvent or mixture, tert-butanol, ambient temperature): 3 mg/mL (≈ 9.56 mM)
- Precipitates formed during storage? ([2]; post-solubility sample in 1-propanol): no
- Precipitates formed during storage? ([2]; post-solubility sample in 2-Me THF): no
- Precipitates formed during storage? ([2]; post-solubility sample in 20:80 2-MeTHF/MeOAc): no
- Precipitates formed during storage? ([2]; post-solubility sample in 20:80 CHCl3/DCM): no
- Precipitates formed during storage? ([2]; post-solubility sample in 20:80 MEK/IPA): no
- Precipitates formed during storage? ([2]; post-solubility sample in 20:80 MEK/MIBK): no
- Precipitates formed during storage? ([2]; post-solubility sample in 20:80 NMP/1-propanol): no
- Precipitates formed during storage? ([2]; post-solubility sample in 20:80 NMP/IPA): no
- Precipitates formed during storage? ([2]; post-solubility sample in 20:80 THF/nitromethane): no
- Precipitates formed during storage? ([2]; post-solubility sample in 25:75 ACN/MTBE): no
- Precipitates formed during storage? ([2]; post-solubility sample in 25:75 DMF/anisole): no
- Precipitates formed during storage? ([2]; post-solubility sample in 50:50 EtOAc/cyclohexane): no
- Precipitates formed during storage? ([2]; post-solubility sample in 50:50 EtOAc/isooctane): no
- Precipitates formed during storage? ([2]; post-solubility sample in 50:50 MeOH/Et2O): no
- Precipitates formed during storage? ([2]; post-solubility sample in 50:50 THF/hexanes): no
- Precipitates formed during storage? ([2]; post-solubility sample in 50:50 acetone/heptane): no
- Precipitates formed during storage? ([2]; post-solubility sample in 50:50 acetone/iso-octane): no
- Precipitates formed during storage? ([2]; post-solubility sample in ACN): no
- Precipitates formed during storage? ([2]; post-solubility sample in CHCl3): yes
- Precipitates formed during storage? ([2]; post-solubility sample in DCM): no
- Precipitates formed during storage? ([2]; post-solubility sample in DMSO): no
- Precipitates formed during storage? ([2]; post-solubility sample in EtOAc): no
- Precipitates formed during storage? ([2]; post-solubility sample in Formic acid): no
- Precipitates formed during storage? ([2]; post-solubility sample in Formulation System B): no
- Precipitates formed during storage? ([2]; post-solubility sample in IPA): no
- Precipitates formed during storage? ([2]; post-solubility sample in MEK): yes (small amount)
- Precipitates formed during storage? ([2]; post-solubility sample in MIBK): no
- Precipitates formed during storage? ([2]; post-solubility sample in MeOAc): no
- Precipitates formed during storage? ([2]; post-solubility sample in NMP): no
- Precipitates formed during storage? ([2]; post-solubility sample in THF): no
- Precipitates formed during storage? ([2]; post-solubility sample in acetic acid): no
- Precipitates formed during storage? ([2]; post-solubility sample in acetone): no
- Precipitates formed during storage? ([2]; post-solubility sample in anisole): no
- Precipitates formed during storage? ([2]; post-solubility sample in cyclohexanone): no
- Precipitates formed during storage? ([2]; post-solubility sample in dioxane): no
- Precipitates formed during storage? ([2]; post-solubility sample in nitromethane): no
- Precipitates formed during storage? ([2]; post-solubility sample in pyridine): no
- Precipitates formed during storage? ([2]; post-solubility sample in tert-butanol): no
